US8304426B2, “Polymorphic form of Granisetron base, methods for obtaining it and formulation containing it” (Inke, S.A., priority 2007, dated 2012)

Assay: Stability of the polymorphic form: XRPD, IR and DSC characterization repeated one year later
Type: physicochemical
Conditions: solid from Example 11 (crystallised from 2-propanol)
Protocol: A PHILIPS X′ Pert diffractometer provided with a Cu tube and a secondary monochromator made of graphite (wavelength Kα Cu, 1.5419 Å) was used to record the X-ray powder diffractograms. Reception slot: 0.1 mm; Soller: 0.04 rad; antidiffusion slot and divergence slot: 1°.
2.61 g of Granisetron base is dissolved in 7.0 ml of 2-propanol, and is taken to reflux, when all the product is dissolved, the resultant dissolution is allowed to cool to 15° C. and the resultant solid is filtered and washed with 2-propanol. 2.47 g of Granisetron base is recovered (95%). Said Granisetron base is characterized as Form I with the following data of XRPD, IR and DSC: […]

## CN1C2CCCC1CC(NC(=O)c1nn(C)c3ccccc13)C2 (stereo not drawn) [Form I of Granisetron base, endo-1-methyl-N-(9-methyl-9-azabicycle[3.3.1]non-3-yl)-1H-indazole-3-carboxamide]
  Stability of polymorphic form (XRPD, IR and DSC characterization repeated, same result obtained): stable
